Converted amounts (≈) assume the structure as drawn.
Legend:
[1] = Urinary excretion; assay type: in vivo; settings: rat; rats; oral administration of 100 mg/kg; urine 0 to 6 and 6 to 24 hours; bioassay; read-out: Urinary recovery in 24 hours (%)
Description: Urine of rats was collected with a urine collector at 0 to 6, and 6 to 24 hours after oral administration of 100 mg/kg of the test antibiotic. The antibiotic levels in the urine samples were bioassayed with the standard solution prepared with M/15 phosphate buffer (pH 7.0) and the urinary recovery in 24 hours was calculated.

[2] = in vivo; settings: rat, po, 100 mg/kg
Description: Rats anesthetized with pentobarbital were fixed in supine position, and a polyethylene cannula was inserted into the bile duct. Bile samples were collected at 0 to 3, 3 to 6, and 6 to 24 hours after oral administration of 100 mg/kg of the test antibiotic. The antibiotic levels in the bile samples were bioassayed with the standard solution prepared with M/15 phosphate buffer (pH 7.0) and the biliary recovery in 24 hours were calculated.

[3] = tested on: Proteus mirabilis 18; assay: In vitro antibacterial activity, two-fold agar-plate dilution method (MIC); assay type: cell-based; settings: HI-agar, 10^8 viable cells per ml, 37° C., 20 hours
Description: (§1) In vitro antibacterial activity was determined by the two-fold agar-plate dilution method as described below. One loopful of an overnight culture of each test strain in Trypticase-soy broth (10^8 viable cells per ml) was streaked on heart infusion agar (HI-agar) containing graded concentrations of representative test compound, and the minimal inhibitory concentration (MIC) was expressed in terms of μg/ml after incubation at 37° C. for 20 hours.

[4] = tested on: Klebsiella pneumoniae 7; assay: as above; assay type: cell-based; settings: HI-agar, 10^8 viable cells per ml, 37° C., 20 hours
Description: as §1

- dose excreted at 24 h [1]: 43.5%
- dose excreted at 24 h [2]: 7.9%
- MIC [3]: 0.05 µg/mL (≈ 0.121 µM)
- MIC [4]: 0.05 µg/mL (≈ 0.121 µM)
SMILES: O=C(O)CO/N=C(\C(=O)NC1C(=O)N2C(C(=O)O)=CCSC12)c1cscn1 (stereo not drawn) [Compound .circle.A, 7-[2-Carboxymethoxyimino-2-(4-thiazolyl)acetamido]-3-cephem-4-carboxylic acid (syn isomer)]
